# Measurements reported in the RepoRT retention time repository.
# Assay: HILIC, Waters ACQUITY UPLC BEH Amide, 100 × 2.1 mm, 1.7 µm; A: water + 0.125% formic acid + 10 mM ammonium formate; B: 5% water + 95% acetonitrile + 0.125% formic acid + 10 mM ammonium formate; gradient (min/%B) 0/100 2/100 7.7/70 9.5/40 10.25/30 12.75/100 17/100
# Conditions: stereoisomer not certain
row,SMILES,LC retention time [min]
1,COc1cc(C2c3cc4c(cc3C(OC3OC5COC(C)OC5C(O)C3O)C3COC(=O)C23)OCO4)cc(OC)c1O (stereo not given) [Etoposide],1.3
2,CC(=O)Nc1ccc(O)cc1 [Acetaminophen],1.37
3,NC(=O)CS(=O)C(c1ccccc1)c1ccccc1 (stereo not given) [Modafinil],1.27
4,Cc1ncc(CO)c(C(=O)O)c1O [4-Pyridoxic acid],2.66
5,CCN(CC)C(=O)C1(c2ccccc2)CC1CN (stereo not given) [Milnacipran],3.23
6,Fc1ccc(C2CCNCC2COc2ccc3c(c2)OCO3)cc1 (stereo not given) [Paroxetine],3.08
7,Cc1ncc(CO)c(CN)c1O [Pyridoxamine],8.1
8,Cc1cc2nc3c(=O)[nH]c(=O)nc-3n(CC(O)C(O)C(O)COP(=O)(O)OP(=O)(O)OCC3OC(n4cnc5c(N)ncnc54)C(O)C3O)c2cc1C (stereo not given),9.52
9,CC12Cc3cn[nH]c3CC1CCC1C2CCC2(C)C1CCC2(C)O (stereo not given) [Stanozolol],1.19
10,CCOC(=O)C1C(OC(=O)c2ccccc2)CC2CCC1N2C (stereo not given) [Cocaethylene],2.12
11,c1ccc2c3c([nH]c2c1)CNCC3 [Tryptoline],4.9
12,COC1C(O)C(CO)OC1n1ccc(N)nc1=O (stereo not given) [2'-O-Methylcytidine],5.02
13,COC(=O)C1C(OC(=O)c2ccccc2)CC2CCC1N2C (stereo not given) [Cocaine],2.2
14,C[N+]1(C)CCCC1C(=O)[O-] (stereo not given) [Stachydrine],7.1
15,O=P(O)(O)OCC(O)C(O)C(O)C(O)CO (stereo not given) [Sorbitol-6-phosphate],9.75
16,"O=C1CCNC(=O)N1 [5,6-Dihydrouracil]",1.77
17,CNCC(O)c1ccc(O)cc1 (stereo not given) [Synephrine],5.67
18,Oc1ccc2c3c1OC1c4[nH]c5ccccc5c4CC4(O)C(C2)N(CC2CC2)CCC314 (stereo not given) [Naltrindole],4.45
19,"Cc1cc2nc[nH]c2cc1C [5,6-Dimethylbenzimidazole]",1.82
20,CN1CCCCC1CCN1c2ccccc2Sc2ccc(S(C)=O)cc21 (stereo not given) [Mesoridazine],4.24
21,O=C(O)CCc1c[nH]c2ccccc12 [3-Indolepropionic acid],1.28
22,COc1cc(-c2[o+]c3cc(O)cc(O)c3cc2OC2OC(CO)C(O)C(O)C2O)cc(O)c1O (stereo not given) [Petunidin-3-glucoside],4.47
23,NC(N)=NCCCCC(N)C(=O)O (stereo not given) [Homoarginine],9.34

row,SMILES,LC retention time [min]
1,COCCCOc1ccnc(CS(=O)c2nc3ccccc3[nH]2)c1C (stereo not given) [Rabeprazole],2.44
2,CC(CCC(=O)NCCS(=O)(=O)O)C1CCC2C3C(O)CC4CC(O)CCC4(C)C3CC(O)C12C (stereo not given) [Taurocholic acid],6.12
3,OCC1OC(OC2C(CO)OC(O)C(O)C2O)C(O)C(O)C1O (stereo not given) [Maltose],8.75
4,CC1CCCC(O)CCCCCc2cc(O)cc(O)c2C(=O)O1 (stereo not given) [Zeranol],1.11
5,CC12CCC(=O)C=C1CCC1C2CCC2(C)C1CCC2(O)C(=O)CO (stereo not given) [Cortodoxone],1.15
6,CCOC(=O)c1cncn1C(C)c1ccccc1 (stereo not given) [Etomidate],0.98
7,CC(CO)CCNc1ncnc2nc[nH]c12 (stereo not given) [Dihydrozeatin],2.99
8,CCOC(=O)C(CCc1ccccc1)NC1CCc2ccccc2N(CC(=O)O)C1=O (stereo not given) [Benazepril],1.33
9,CC12CCC3C(CC=C4CC(O)CCC43C)C1CCC2=O (stereo not given) [Dehydroepiandrosterone],1.03
10,O=C(O)COCCN1CCN(C(c2ccccc2)c2ccc(Cl)cc2)CC1 (stereo not given) [Levocetirizine],2.9
11,CN1C(=O)COc2c(C(=O)NC3CN4CCC3CC4)cc(Cl)cc21 (stereo not given) [Azasetron],4.66
12,CCC(C)C(NC(=O)C(C)N)C(=O)O (stereo not given) [Ala-Ile],7.83
13,CC(C)CC(N(C)C)C1(c2ccc(Cl)cc2)CCC1 (stereo not given) [Sibutramine],1.86
14,C#CC1(O)CCC2C3CCC4=CC(=O)CCC4C3CCC21CC (stereo not given) [Levonorgestrel],0.99
15,CCCCCCCCC=CCCCCCCCC(=O)OCC(O)CO (stereo not given) [Monoolein],1.19
16,CN1CCC23c4c5ccc(O)c4OC2C(=O)CCC3C1C5 (stereo not given) [Hydromorphone],5.22
17,OCc1cccnc1 [3-Pyridinemthanol],1.41
18,CNc1nc2c(ncn2C2OC(CO)C(O)C2O)c(=O)[nH]1 (stereo not given) [N2-Methylguanosine],6.4
19,CCOC(=O)COc1cc(-c2nn(C)c(OC(F)F)c2Cl)c(F)cc1Cl [Pyrafluefen-ethyl],1.02
20,OC1CCCCC1N1CCC(c2ccccc2)CC1 (stereo not given) [Vesamicol],2.65
21,C=CC(C)(O)CCC=C(C)C (stereo not given) [Linalool],0.97
22,CC(NC(C)(C)C)C(=O)c1cccc(Cl)c1 (stereo not given) [Bupropion],2.22

# Now from value to compound:
row,LC retention time [min],SMILES
1,3.4,Nc1ccn(C2CSC(CO)O2)c(=O)n1 (stereo not given) [Lamivudine]
2,4.76,CCC1=CC2CN(C1)Cc1c([nH]c3ccccc13)C(C(=O)OC)(c1cc3c(cc1OC)N(C)C1C(O)(C(=O)OC)C(OC(C)=O)C4(CC)C=CCN5CCC31C54)C2 (stereo not given) [Vinorelbine]
3,9.55,NC(=O)CCC(NC(=O)CCC(N)C(=O)O)C(=O)O (stereo not given) [gamma-Glutamylglutamine]
4,2.15,CN(C)CCOC(c1ccccc1)c1ccccc1 [Diphenhydramine]
5,8.49,CN=C(NC)NCCCC(N)C(=O)O (stereo not given) [SDMA]
6,9.51,NC(N)=NCCCC(N)C(=O)N1CCCC1C(=O)O (stereo not given) [Arg-Pro]
7,1.81,CC(C)c1ccc2oc3nc(N)c(C(=O)O)cc3c(=O)c2c1 [Amlexanox]
8,10.2,NC(CCC(=O)NC(CSSCC(NC(=O)CCC(N)C(=O)O)C(=O)NCC(=O)O)C(=O)NCC(=O)O)C(=O)O (stereo not given) [Glutathione (oxidized)]
9,3.44,"O=c1[nH]cnc2c1ncn2C1CCC(CO)O1 (stereo not given) [2',3'-Dideoxyinosine]"
10,1.05,C=C1CCOC1=O [alpha-Methylene-gamma-butyrolactone]
11,2.83,Cc1nccn1CC1CCc2c(c3ccccc3n2C)C1=O (stereo not given) [Ondansetron]
12,7.83,C[N+](C)(C)CC(O)CC(=O)[O-] (stereo not given) [Carnitine]
13,1.27,"O=c1c(-c2ccc(O)cc2)coc2cc(O)cc(O)c12 [4,5,7-Trihydroxyisoflavone]"
14,1.07,COc1cc(CNC(=O)CCCCCCC(C)C)ccc1O [Dihydrocapsaicin]
15,1.01,O=C(C=Cc1ccccc1O)c1ccccc1 [2-Hydroxychalcone]
16,4.37,CCN1CCCC1CNC(=O)c1cc(S(N)(=O)=O)ccc1OC (stereo not given) [Levosulpiride]
17,4.41,CC(Cc1ccccc1)(NC(=O)CN)c1ccccc1 (stereo not given) [Remacemide]
18,7.4,CC(CN)C(=O)O (stereo not given) [3-Aminoisobutyric acid]
19,2.48,O=c1ccn(C2OC(CO)C(O)C2O)c(=S)[nH]1 (stereo not given) [2-Thiouridine]
20,1.69,"Cn1c(=O)[nH]c2ncn(C)c2c1=O [1,7-Dimethylxanthine]"
21,1.12,NC(=O)C=CC(=O)O [Maleamic acid]
22,1.55,Cc1c(O)cccc1C(=O)NC(CSc1ccccc1)C(O)CN1CC2CCCCC2CC1C(=O)NC(C)(C)C (stereo not given) [Nelfinavir]
23,1.12,Clc1ccccc1CN1CCc2sccc2C1 [Ticlopidine]

row,LC retention time [min],SMILES
1,3.18,O=C(O)c1cc(O)ccc1O [Gentisinic acid]
2,7.05,O=P(O)(O)Oc1ccccc1 [Phenylphosphoric acid]
3,2.95,CN1CCCC(n2nc(Cc3ccc(Cl)cc3)c3ccccc3c2=O)CC1 (stereo not given) [Azelastine]
4,1.32,COc1ccc(NC=O)c(C(=O)CCNC(C)=O)c1 [N-gamma-Acetyl-N-2-formyl-5-methoxykynurenamine]
5,7.24,CC(C)C(N)C(=O)O (stereo not given) [Valine]
6,8.15,CC(=O)N[C@@H](CCCCN)C(=O)O [N.alpha.-Acetyl-L-lysine]
7,1.06,CC(=O)Oc1ccc2c(C)cc(=O)oc2c1 [4-Methylumbelliferyl acetate]
8,1.4,CCOC(=O)C(CCc1ccccc1)NC(C)C(=O)N1C(C(=O)O)CC2CCCC21 (stereo not given) [Ramipril]
9,7.68,CNC(C(=O)O)C(C)O (stereo not given) [N-Methylthreonine]
10,0.91,O=C(O)CCC(O)C(=O)O (stereo not given) [2-Hydroxyglutaric acid]
11,1.78,O=C1c2c(O)cc(O)cc2OC(c2ccc(O)c(O)c2)C1O (stereo not given) [Taxifolin]
12,7.35,CN[C@@H](CCCCN)C(=O)O [N.alpha.-Methyl-L-lysine]
13,1.69,O=c1cc[nH]c2ccccc12 [4-Hydroxyquinoline]
14,5.52,NC(N)=NC(=O)c1nc(Cl)c(N)nc1N [Amiloride]
15,8.15,NC(N)=NCCC(=O)O [3-Guanidinopropionic acid]
16,10.3,CC(NC(CCCN=C(N)N)C(=O)O)C(=O)O (stereo not given) [Octopine]
17,4.53,COC(=O)C1=COC(OC2OC(CO)C(O)C(O)C2O)C2C(CO)=CCC12 (stereo not given) [Geniposide]
18,0.94,CCOC(=O)C1=C(C)NC(C)=C(C(=O)OCC)C1c1ccccc1C=CC(=O)OC(C)(C)C [Lacidipine]
19,2.89,CN1CCc2cc(Cl)c(O)cc2C(c2ccccc2)C1 (stereo not given) [UNII-UGT5535REQ]
20,1,CC#CC1(O)CCC2C3CCC4=CC(=O)CCC4=C3C(c3ccc(N(C)C)cc3)CC21C (stereo not given) [Mifepristone]
21,4.54,"Nc1ccn(C2CCC(CO)O2)c(=O)n1 (stereo not given) [2,3-Dideoxycytidine]"
22,1.01,CCCCCCCCCCCCCC(=O)OC(CO)CO [2-Myristoylglycerol]
